From patent publication US11629135B2 (JUBILANT PRODEL LLC, priority 2017, dated 2023)

Experiments:
CYP 2D6 = molecular target: T1, CYP 2D6 (Homo sapiens, UniProt P10635); assay: CYP inhibition in human liver microsomes (CYP2D6); type: in vitro ADME; conditions: hydroxylation of bufuralol, read-out: predicted IC50, CYP 2D6
T1 construct: assessed in human liver microsomes (procured from GIBCO Invitrogen); tissue GIBCO Invitrogen; host or cells: human liver microsomes
Method: (§1) CYP inhibition potential of compound was assessed in human liver microsomes (procured from GIBCO Invitrogen) against CYP3A4, 2D6, 2C9, 2C19 and 1A2 in the following sequential steps. Standard reaction mixture (final volume 300 μL) contained […] potassium phosphate buffer (pH 7.4), protein (0.1, 0.25, 0.5, 0.5 and 0.5 mg/mL concentration for CYP3A4, 2D6, 2C9 2C19 and 1A2 respectively) and compound (at eight different concentration levels ranging from […], added as 0.9 μL DMSO solution with a final DMSO concentration of […]). The mixtures were pre-incubated at 37±1° C. for 5 min. The reaction (in duplicate) was initiated by addition of 30 μL of NADPH (10 mM). Reaction was terminated at 10 min by adding 300 μL of acetonitrile. The activity of liver microsomes was confirmed with positive controls i.e., monitoring the hydroxylation of midazolam for CYP 3A4, hydroxylation of bufuralol for CYP 2D6, hydroxylation of diclofenac for CYP 2C9, hydroxylation of omeprazole for CYP2C19 and O-Deethylation for CYP 1A2. The reaction mixtures (obtained from the above studies) were extracted, processed and analyzed by LC-MS [Shimadzu SIL LC series (Kyoto, Japan) was coupled to an API-4000 Mass Spectrometer (MDS Sciex, Toronto, Canada)].

PD-1/PD-L1 interaction = molecular target: T2, PD-1/PD-L1 interaction (Homo sapiens, UniProt Q9NZQ7); assay: PD-1/PD-L1 Homogenous Time-Resolved Fluorescence (HTRF) binding assay; conditions: Biochemical PD1/PD-L1 inhibition
T2 construct: Tag1 or Tag2 (undisclosed kit tag); purchased CisBio 63ADK000CPAPEG
T2 sequence (Q9NZQ7 19-238 limits assumed): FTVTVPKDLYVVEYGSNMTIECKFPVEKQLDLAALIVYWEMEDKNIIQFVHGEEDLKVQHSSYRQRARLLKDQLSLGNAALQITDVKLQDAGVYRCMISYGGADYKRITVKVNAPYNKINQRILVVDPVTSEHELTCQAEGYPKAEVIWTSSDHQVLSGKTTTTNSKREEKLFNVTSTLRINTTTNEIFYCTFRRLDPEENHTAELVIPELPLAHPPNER
Method: PD-L1 Enzyme Assay: Homogenous Time-Resolved Fluorescence (HTRF) Binding Assay
All binding studies were performed using PD-1/PD-L1 Binding Assay Kit from CisBio (Catalog #63ADK000CPAPEG), according to the manufacturer's protocol. The interaction between Tag1-PD-1 and […] was detected by anti-Tag1-Eu^3+ (HTRF donor) and anti-Tag2-XL665 (HTRF acceptor). When the donor and acceptor antibodies were brought to close proximity due to PD-1 and PD-L1 binding, excitation of the donor antibody triggered fluorescent resonance energy transfer (FRET) towards the acceptor antibody, which in turn emitted specifically at 665 nm. This specific signal is positively proportional to PD-1/PD-L1 interaction. The compounds blocking PD-1/PD-L1 interaction will cause a reduction in HTRF signal. The necessary reagents were mixed in the following order: 2 μl compounds (or diluents buffer), 4 μl PD-L1 protein, 4 μl PD-1 protein. After an incubation of 15 minutes, 5 μl of anti-Tag1-Eu^3+ and 5 μl of anti-Tag2-XL665 were added. The plate was sealed and incubated at RT for 1 h. The fluorescence emission was read at two different wavelengths (665 nm and 620 nm) on a BMG PheraStar® multiplate reader. Results were calculated from the 665 nm and 620 nm fluorescence signal and expressed in HTRF ratio=(665 nm/620 nm)×[…].

CYP 2C9 = molecular target: T3, CYP 2C9 (Homo sapiens, UniProt P11712); assay: CYP inhibition in human liver microsomes (CYP2C9); type: in vitro ADME; conditions: hydroxylation of diclofenac, read-out: predicted IC50, CYP 2C9
T3 construct: assessed in human liver microsomes (procured from GIBCO Invitrogen); tissue GIBCO Invitrogen; host or cells: human liver microsomes
T3 sequence (P11712 whole entry): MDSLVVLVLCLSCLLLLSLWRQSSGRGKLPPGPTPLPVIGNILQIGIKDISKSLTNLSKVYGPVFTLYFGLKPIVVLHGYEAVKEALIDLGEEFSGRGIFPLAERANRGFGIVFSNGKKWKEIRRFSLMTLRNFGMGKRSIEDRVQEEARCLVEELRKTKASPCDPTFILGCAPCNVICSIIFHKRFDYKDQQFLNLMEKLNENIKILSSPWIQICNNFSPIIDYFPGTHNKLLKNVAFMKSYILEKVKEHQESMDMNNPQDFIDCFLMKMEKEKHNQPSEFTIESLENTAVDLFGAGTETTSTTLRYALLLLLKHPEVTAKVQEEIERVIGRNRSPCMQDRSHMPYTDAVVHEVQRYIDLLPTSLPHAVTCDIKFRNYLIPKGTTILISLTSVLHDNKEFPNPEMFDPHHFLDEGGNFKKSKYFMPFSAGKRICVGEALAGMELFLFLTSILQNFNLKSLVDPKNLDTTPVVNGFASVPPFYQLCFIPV
Method: as §1

[1] = Metabolic stability in liver microsomes (rat); type: in vitro ADME; conditions: rat liver microsomes 0.5 mg/mL, compound 1 μM, NADPH, up to 30 min
Method: Metabolic Stability in Liver Microsomes
Procedure: Potassium phosphate buffer (66.7 mM, pH 7.4) containing mouse or rat or dog or monkey or human liver microsomes (0.5 mg/mL) was pre-incubated separately with compound (1 μM) and positive control (verapamil, 1 μM) in a 37° C. water bath for 5 min. The reactions were initiated by adding 20 μL of 10 mM NADPH. Reactions without NADPH (0 and 30 min) were also incubated to rule out non-NADPH metabolism or chemical instability in the incubation buffer. All reactions were terminated using 200 μL of ice-cold acetonitrile containing internal standard at 0, 5, 15 and 30 min. The vials were centrifuged at 3000 rpm for 15 min. The reaction mixtures (obtained from the above studies) were extracted, processed and analyzed by LC-MS [Shimadzu SIL LC series (Kyoto, Japan) was coupled to an API-4000 Mass Spectrometer (MDS Sciex, Toronto, Canada)] to monitor the disappearance of compound.

[2] = test system: Caco-2 human intestinal epithelial cells; assay: Caco-2 permeability; type: in vitro ADME; conditions: 5 μM, bi-directional, 60 min
Method: Procedure: Caco-2 human intestinal epithelial cells were plated in 24-Transwell® dual chamber plates (Millipore, Billerica, Mass., USA) (cell density of 80,000 cells/cm^2 on day-1). The permeability studies were conducted with the monolayers cultured for 21 to 22 days in culture. The integrity of each Caco-2 cell monolayer was certified by trans epithelial electrical resistance (TEER) test (pre-experiment) and by determining the permeability of reference compound i.e., Lucifer yellow. Caco-2 cell monolayers with TEER values greater than 500 Ωcm^2 were considered for experimentation. Digoxin (5 μM) was used as a positive control for P-gp substrate. The concentrations of compound used in the assay was 5 μM. HBSS Buffer was used as the medium for the transport assay and the final concentration of DMSO in spiking solution was 0.05%. The bi-directional permeability study was initiated by adding an appropriate volume of HBSS buffer containing compound to respective apical and basolateral chambers (n=3). An aliquot of sample (100 μL) was taken from both chambers at 0 and 60 min of the incubation period and to this equal volume of acetonitrile was added, mixed gently and centrifuged at 4000 rpm for 10 min. An aliquot of 100 μL was subsequently transferred to the auto-sampler and 10 μL was injected for analysis on LC-MS/MS.

CYP2C19 = molecular target: T4, CYP2C19 (Homo sapiens, UniProt P33261); assay: CYP inhibition in human liver microsomes (CYP2C19); type: in vitro ADME; conditions: hydroxylation of omeprazole (CYP2C19 per method), read-out: predicted IC50, hydroxylation of omeprazole
T4 construct: assessed in human liver microsomes (procured from GIBCO Invitrogen); tissue GIBCO Invitrogen; host or cells: human liver microsomes
T4 sequence (P33261 whole entry): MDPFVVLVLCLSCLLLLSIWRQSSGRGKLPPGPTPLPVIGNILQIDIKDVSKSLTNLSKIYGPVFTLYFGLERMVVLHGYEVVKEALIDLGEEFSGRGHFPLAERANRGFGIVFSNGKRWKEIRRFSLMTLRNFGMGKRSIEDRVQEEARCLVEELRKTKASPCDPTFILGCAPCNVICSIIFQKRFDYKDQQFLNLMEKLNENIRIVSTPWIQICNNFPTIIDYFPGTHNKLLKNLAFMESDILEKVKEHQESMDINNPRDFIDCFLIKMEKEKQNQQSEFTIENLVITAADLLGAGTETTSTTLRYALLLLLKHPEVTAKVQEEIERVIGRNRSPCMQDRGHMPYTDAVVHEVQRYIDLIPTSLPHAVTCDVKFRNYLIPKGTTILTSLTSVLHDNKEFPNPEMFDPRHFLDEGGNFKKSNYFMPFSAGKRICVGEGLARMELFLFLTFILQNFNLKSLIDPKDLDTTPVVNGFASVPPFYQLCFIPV
Method: as §1

CYP3A4 = molecular target: T5, CYP3A4 (Homo sapiens, UniProt P08684); assay: CYP inhibition in human liver microsomes (CYP3A4); type: in vitro ADME; conditions: hydroxylation of midazolam, read-out: predicted IC50, CYP 3A4
T5 construct: assessed in human liver microsomes (procured from GIBCO Invitrogen); tissue GIBCO Invitrogen; host or cells: human liver microsomes
T5 sequence (P08684 whole entry): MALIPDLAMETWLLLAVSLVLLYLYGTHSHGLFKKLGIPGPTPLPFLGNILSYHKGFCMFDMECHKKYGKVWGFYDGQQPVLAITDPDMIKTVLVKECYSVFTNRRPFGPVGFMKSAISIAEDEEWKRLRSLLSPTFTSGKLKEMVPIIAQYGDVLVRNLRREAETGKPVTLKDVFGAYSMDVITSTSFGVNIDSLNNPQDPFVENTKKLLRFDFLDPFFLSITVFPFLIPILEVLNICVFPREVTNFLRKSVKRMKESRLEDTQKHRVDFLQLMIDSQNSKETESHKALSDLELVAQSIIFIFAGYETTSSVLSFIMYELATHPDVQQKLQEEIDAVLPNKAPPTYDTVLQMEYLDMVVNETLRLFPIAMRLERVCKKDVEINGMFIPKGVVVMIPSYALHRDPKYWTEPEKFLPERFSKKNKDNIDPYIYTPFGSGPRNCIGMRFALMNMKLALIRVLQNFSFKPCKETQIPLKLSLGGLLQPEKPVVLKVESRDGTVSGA
Method: as §1

T1 sequence (P10635 whole entry): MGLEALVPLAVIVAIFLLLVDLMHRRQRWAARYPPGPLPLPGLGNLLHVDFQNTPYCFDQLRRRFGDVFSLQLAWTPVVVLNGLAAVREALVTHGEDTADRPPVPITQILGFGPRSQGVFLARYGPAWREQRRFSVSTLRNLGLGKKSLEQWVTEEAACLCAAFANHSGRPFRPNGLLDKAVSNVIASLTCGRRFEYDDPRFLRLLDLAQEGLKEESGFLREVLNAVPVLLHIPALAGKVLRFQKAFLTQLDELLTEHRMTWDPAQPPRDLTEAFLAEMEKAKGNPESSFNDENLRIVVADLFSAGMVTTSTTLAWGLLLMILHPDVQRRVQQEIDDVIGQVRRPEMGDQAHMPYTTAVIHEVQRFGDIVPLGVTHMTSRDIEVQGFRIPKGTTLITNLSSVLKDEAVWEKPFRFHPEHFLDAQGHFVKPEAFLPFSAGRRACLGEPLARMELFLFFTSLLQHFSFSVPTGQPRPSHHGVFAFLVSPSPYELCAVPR

For `COc1nc(OCc2cccc(-c3ccccc3)c2C)nc(OC)c1CN1CCCC[C@H]1C(=O)O` [Compound 45, (S)-1-((4,6-dimethoxy-2-((2-methyl-[1,1′-biphenyl]-3-yl)methoxy)pyrimidin-5-yl)methyl)piperidine-2-carboxylic acid], which IC50 (CYP 2D6) is on record?
Its IC50 is over 10 µM.

And the IC50 (PD-1/PD-L1 interaction)?
The IC50 was under 0.1 µM.

What about the IC50 (CYP 2C9) of the same molecule?
The IC50 was over 10 µM.

What about the “Metabolic stability in liver microsomes” value [1] of the same molecule?
Its value is over 80%.

What about the Caco-2 efflux [2] of the same molecule?
The Caco-2 efflux was “high efflux”.

And the Caco-2 permeability [2]?
The Caco-2 permeability was “medium permeable”.

What about the IC50 (CYP2C19) of the same molecule?
The IC50 was over 10 µM.

What about the IC50 (CYP3A4) of the same molecule?
Its IC50 is over 10 µM.
